Measured values reported in PubChem BioAssay AID493172 (Broad Institute, 2011).
Activity calls are given as the source filed them.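 How the source made its calls: active means falling signal with an AC50 no greater than ten times the top valid dose tested for that sample; inconclusive means flat curve with inhibition of 30 to 70 percent, or poor fit; inactive means activity in the rising direction, and the rest.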

What follows are compounds tested against LuxS (S-ribosylhomocysteine lyase), bacterial (assay: LuxS enzyme inhibitors, dose response, biochemical, dry powder, set 2, absorbance (AID 493172)). Details: purified Co-LuxS, DTNB homocysteine absorbance 412 nm.

Question: With `C=Cn1c(C(=O)O)ccc1-c1ccc(CC)cc1` as the compound, how does the AC50 read?
Answer: The AC50 was > 35 µM (inactive).

Same assay, conditions: purified Co-LuxS, DTNB homocysteine absorbance 412 nm; at 35 µM (top of the series)

Question: `CCc1ccc(S(=O)(=O)Nc2ccc(Br)cn2)cc1` was tested. Which “activity change, negative = inhibition” value did it give?
Answer: Its value is “inactive”.

Question: With `COc1cc(NC(=O)CN2C(=O)NC(c3ccccc3)(c3ccccc3)C2=O)cc(OC)c1` as the compound, how does the “activity change, negative = inhibition” value read?
Answer: The value was “inactive”.

Question: For `CCc1ccc(C(=O)Nc2ccc(Br)cn2)cc1`, which “activity change, negative = inhibition” value is on record?
Answer: Its value is “inactive”.

Question: With `Cn1cnc(S(=O)(=O)Nc2ccc(OC(F)(F)F)cc2)c1` as the compound, how does the “activity change, negative = inhibition” value read?
Answer: Its value is “inactive”.

Question: `Cc1cccc(NS(=O)(=O)c2ccc(Oc3ccccc3)cc2)n1` was tested. Which “activity change, negative = inhibition” value did it give?
Answer: Its value is “inactive”.

Question: With `Cc1cccc(NC(=O)c2ccc(Oc3ccccc3)cc2)n1` as the compound, how does the “activity change, negative = inhibition” value read?
Answer: Its value is “inactive”.
